# Experimental data from the supplement of paper PMC10307832.
# Compound: CCn1c(-c2nonc2N)nc2c(C#CC(C)(C)O)ncc(OC[C@H]3CCCNC3)c21 + CS(=O)(=O)CCNCc1ccc(-c2ccc3ncnc(Nc4ccc(OCc5cccc(F)c5)c(Cl)c4)c3c2)o1 [Lapatinib] (partner 2 µM)
# Test: relative viability (nuclei count vs DMSO), 5 days (fraction); higher = more cells survive
# Details: first compound 0.01 µM
# Procedure, shortened: (§1)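 Five library-drug doses in √10 steps were combined with a fixed anchor-drug dose, or a single drug was given alone, by pin tool to lung cancer cell lines in 1536-well plates the day after seeding. Nuclei were stained and counted after 5 days. Relative viability is the nuclei count in treated wells over that in vehicle wells, taken as the median of duplicate plates.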
row,Cell Line,relative viability
1,NCI-H727,0.796
2,NCI-H1650,0.758
3,EBC-1,0.219
4,NCI-H1703,0.998
5,NCI-H1993,0.957
6,SW 1573,1.1
7,NCI-H838,1.11
8,NCI-H520,0.923
9,NCI-H2126,0.779
10,EMC-BAC-2,0.871
11,NCI-H2085,0.8

# Same assay, conditions: first compound 0.03162 µM
row,Cell Line,relative viability
1,NCI-H727,0.856
2,NCI-H1650,0.864
3,EBC-1,0.197
4,NCI-H1703,1.23
5,NCI-H1993,0.781
6,SW 1573,1
7,NCI-H838,1.13
8,NCI-H520,0.952
9,NCI-H2126,0.773
10,EMC-BAC-2,0.83
11,NCI-H2085,0.7

# Same assay, conditions: first compound 0.1 µM
row,Cell Line,relative viability
1,NCI-H727,0.593
2,NCI-H1650,0.708
3,EBC-1,0.213
4,NCI-H1703,1.05
5,NCI-H1993,0.947
6,SW 1573,1.02
7,NCI-H838,1.1
8,NCI-H520,0.727
9,NCI-H2126,0.641
10,EMC-BAC-2,0.866
11,NCI-H2085,0.601

# Same assay, conditions: first compound 0.3162 µM
row,Cell Line,relative viability
1,NCI-H727,0.762
2,NCI-H1650,0.725
3,EBC-1,0.236
4,NCI-H1703,0.739
5,NCI-H1993,0.704
6,SW 1573,0.869
7,NCI-H838,0.853
8,NCI-H520,0.454
9,NCI-H2126,0.731
10,EMC-BAC-2,0.88
11,NCI-H2085,0.574

# Same assay, conditions: first compound 1 µM
row,Cell Line,relative viability
1,NCI-H727,0.66
2,NCI-H1650,0.578
3,EBC-1,0.227
4,NCI-H1703,0.662
5,NCI-H1993,0.872
6,SW 1573,0.946
7,NCI-H838,0.968
8,NCI-H520,0.425
9,NCI-H2126,0.755
10,EMC-BAC-2,0.938
11,NCI-H2085,0.573

# Compound: CCOC1=CC=CC=C1N=NC2=C(NN(C2=O)C3=NC(=CS3)C4=CC=CC=C4)C [BAM7] + CS(=O)(=O)N1CCN(Cc2cc3nc(-c4cccc5[nH]ncc45)nc(N4CCOCC4)c3s2)CC1 [Pictilisib] (partner 1 µM)
# Test: as above
# Details: first compound 0.5 µM
# Procedure, shortened: as §1
row,Cell Line,relative viability
1,NCI-H727,0.414
2,NCI-H1650,0.524
3,EBC-1,0.359
4,NCI-H1703,0.23
5,NCI-H1993,0.82
6,SW 1573,0.583
7,NCI-H838,0.487
8,LCLC-103H,0.611
9,NCI-H520,0.273
10,NCI-H2126,0.514
11,EMC-BAC-2,0.521
12,NCI-H2085,0.388
13,ChaGo-K-1,0.647
14,NCI-H441,0.433

# Same assay, conditions: first compound 5 µM
row,Cell Line,relative viability
1,NCI-H727,0.545
2,NCI-H1650,0.572
3,EBC-1,0.375
4,NCI-H1703,0.262
5,NCI-H1993,0.896
6,SW 1573,0.48
7,NCI-H838,0.421
8,LCLC-103H,0.654
9,NCI-H520,0.3
10,NCI-H2126,0.448
11,EMC-BAC-2,0.542
12,NCI-H2085,0.43
13,ChaGo-K-1,0.878
14,NCI-H441,0.47

# Same assay, conditions: first compound 15.81 µM
row,Cell Line,relative viability
1,NCI-H727,0.387
2,NCI-H1650,0.565
3,EBC-1,0.328
4,NCI-H1993,0.778
5,SW 1573,0.457
6,NCI-H838,0.449
7,LCLC-103H,0.604
8,NCI-H520,0.264
9,NCI-H2126,0.507
10,EMC-BAC-2,0.595
11,NCI-H2085,0.365
12,ChaGo-K-1,0.789
13,NCI-H441,0.528

# Same assay, conditions: first compound 50 µM
row,Cell Line,relative viability
1,NCI-H727,0.31
2,NCI-H1650,0.699
3,EBC-1,0.307
4,NCI-H1703,0.256
5,NCI-H1993,0.879
6,SW 1573,0.483
7,NCI-H838,0.441
8,LCLC-103H,0.687
9,NCI-H520,0.324
10,NCI-H2126,0.479
11,EMC-BAC-2,0.559
12,NCI-H2085,0.439
13,ChaGo-K-1,0.929
14,NCI-H441,0.519

# Compound: CCOC1=CC=CC=C1N=NC2=C(NN(C2=O)C3=NC(=CS3)C4=CC=CC=C4)C [BAM7]
# Test: relative viability (nuclei count vs DMSO), 5 days (fraction); higher = more cells survive
# Details: 0.5 µM
# Procedure, shortened: (§2)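 Acceptance criteria were a control CV below 25% and at least one doubling per plate. Lung cancer cell lines in 1536-well plates got five library-drug doses (not always all listed) √10 apart by pinning and were left 5 days with no medium change. Viability divides treated-well nuclei by vehicle-well nuclei and is the median across plates. Nuclei were counted by MetaXpress from 4× Hoechst images.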
row,Cell Line,relative viability
1,NCI-H522,0.981
2,NCI-H1623,1.06
3,NCI-H727,0.962
4,NCI-H1650,1.02
5,EBC-1,1.05
6,NCI-H1703,1.04
7,NCI-H1993,0.776
8,SW 1573,1.03
9,NCI-H838,1.03
10,LCLC-103H,0.966
11,NCI-H520,1
12,NCI-H2126,0.944
13,EMC-BAC-2,1.03
14,NCI-H2085,0.995
15,NCI-H2342,0.851
16,ChaGo-K-1,0.966
17,SW 900,0.781
18,NCI-H1648,0.786
19,NCI-H441,1.16

# Same assay, conditions: 5 µM
row,Cell Line,relative viability
1,NCI-H522,1.07
2,NCI-H1623,0.974
3,NCI-H727,0.811
4,NCI-H1650,0.884
5,EBC-1,1.04
6,NCI-H1703,0.989
7,NCI-H1993,0.764
8,SW 1573,1.18
9,NCI-H838,1.04
10,LCLC-103H,1.04
11,NCI-H520,1.02
12,NCI-H2126,0.879
13,EMC-BAC-2,1.08
14,NCI-H2085,0.976
15,NCI-H2342,0.994
16,ChaGo-K-1,1.02
17,SW 900,0.826
18,NCI-H1648,0.754
19,NCI-H441,1.06

# Same assay, conditions: 15.81 µM
row,Cell Line,relative viability
1,NCI-H522,1.01
2,NCI-H1623,0.768
3,NCI-H727,0.881
4,NCI-H1650,0.826
5,EBC-1,0.952
6,NCI-H1703,0.808
7,NCI-H1993,0.744
8,SW 1573,0.969
9,NCI-H838,0.946
10,LCLC-103H,0.983
11,NCI-H520,1.01
12,NCI-H2126,0.867
13,EMC-BAC-2,1.22
14,NCI-H2085,0.933
15,NCI-H2342,0.89
16,ChaGo-K-1,1.01
17,SW 900,0.708
18,NCI-H1648,0.608
19,NCI-H441,1.1

# Same assay, conditions: 50 µM
row,Cell Line,relative viability
1,NCI-H522,1.07
2,NCI-H1623,0.896
3,NCI-H727,0.937
4,NCI-H1650,1.04
5,EBC-1,1.06
6,NCI-H1703,1
7,NCI-H1993,0.737
8,SW 1573,1.08
9,NCI-H838,1.06
10,LCLC-103H,1.04
11,NCI-H520,1.09
12,NCI-H2126,0.898
13,EMC-BAC-2,1.02
14,NCI-H2085,1.01
15,NCI-H2342,0.708
16,ChaGo-K-1,0.92
17,SW 900,1.03
18,NCI-H1648,0.708
19,NCI-H441,1.44

# Compound: CCn1c(-c2nonc2N)nc2c(C#CC(C)(C)O)ncc(OC[C@H]3CCCNC3)c21
# Test: as above
# Details: 0.01 µM
# Procedure, shortened: as §2
row,Cell Line,relative viability
1,NCI-H522,1.07
2,NCI-H1623,1.07
3,NCI-H727,1.02
4,NCI-H1650,0.941
5,EBC-1,0.986
6,NCI-H1703,0.828
7,NCI-H1993,0.968
8,SW 1573,0.98
9,NCI-H838,1.01
10,LCLC-103H,0.964
11,NCI-H520,0.905
12,NCI-H2126,0.98
13,EMC-BAC-2,0.919
14,NCI-H2085,0.991
15,NCI-H2342,0.957
16,ChaGo-K-1,0.965
17,SW 900,0.796
18,NCI-H1648,0.922
19,NCI-H441,0.927

# Same assay, conditions: 0.03162 µM
row,Cell Line,relative viability
1,NCI-H522,1.03
2,NCI-H1623,1.02
3,NCI-H727,0.866
4,NCI-H1650,0.994
5,EBC-1,0.963
6,NCI-H1703,0.973
7,NCI-H1993,0.976
8,SW 1573,0.932
9,NCI-H838,1
10,LCLC-103H,0.988
11,NCI-H520,0.921
12,NCI-H2126,0.908
13,EMC-BAC-2,0.725
14,NCI-H2085,0.977
15,NCI-H2342,0.881
16,ChaGo-K-1,0.988
17,SW 900,0.73
18,NCI-H1648,0.869
19,NCI-H441,1.05

# Same assay, conditions: 0.1 µM
row,Cell Line,relative viability
1,NCI-H522,0.972
2,NCI-H1623,0.963
3,NCI-H727,0.871
4,NCI-H1650,0.877
5,EBC-1,0.973
6,NCI-H1703,0.839
7,NCI-H1993,0.985
8,SW 1573,0.871
9,NCI-H838,0.993
10,LCLC-103H,0.929
11,NCI-H520,0.779
12,NCI-H2126,0.995
13,EMC-BAC-2,0.933
14,NCI-H2085,1
15,NCI-H2342,0.99
16,ChaGo-K-1,0.972
17,SW 900,0.76
18,NCI-H1648,0.775
19,NCI-H441,1.04

# Same assay, conditions: 0.3162 µM
row,Cell Line,relative viability
1,NCI-H522,0.826
2,NCI-H1623,0.967
3,NCI-H727,0.848
4,NCI-H1650,0.841
5,EBC-1,0.883
6,NCI-H1703,0.788
7,NCI-H1993,0.92
8,SW 1573,0.677
9,NCI-H838,0.846
10,LCLC-103H,0.938
11,NCI-H520,0.753
12,NCI-H2126,0.996
13,EMC-BAC-2,0.937
14,NCI-H2085,0.937
15,NCI-H2342,0.91
16,ChaGo-K-1,0.936
17,SW 900,0.822
18,NCI-H1648,0.851
19,NCI-H441,0.948

# Same assay, conditions: 1 µM
row,Cell Line,relative viability
1,NCI-H522,1.02
2,NCI-H1623,1.09
3,NCI-H727,0.973
4,NCI-H1650,0.833
5,EBC-1,0.757
6,NCI-H1703,0.612
7,NCI-H1993,0.852
8,SW 1573,0.777
9,NCI-H838,0.963
10,LCLC-103H,1.09
11,NCI-H520,0.665
12,NCI-H2126,1.02
13,EMC-BAC-2,1.04
14,NCI-H2085,0.97
15,NCI-H2342,0.964
16,ChaGo-K-1,1
17,SW 900,0.892
18,NCI-H1648,0.973
19,NCI-H441,0.99
